In ChEMBL document CHEMBL1148849, “Synthesis and structure evaluation of a novel cantharimide and its cytotoxicity on SK-Hep-1 hepatoma cells” (2007) one finds Activity data, which are given here for 2 molecules.

Molecules are shown by their SMILES. The source made the active and inactive calls. The rule behind the calls is not given here.

Test [1] concerns SK-HEP1. As to the kind of experiment: Effect on apoptosis in human SK-HEP-1 cells assessed as increase in caspase 3 activation at 25 ug/mL after 48 hrs. Format: functional, cell-based.
Test [2] relates to MCF7. As to the kind of experiment: Apoptotic effect on MCF7 cells assessed as induction of shrinkage at 25 ug/mL after 48 hrs. The format is functional, cell-based. As to conditions: Homo sapiens.
Test [3] concerns SK-HEP1. As to the kind of experiment: Cytotoxicity against human SK-HEP-1 cells assessed as 50 percent MTS reduction after 48 hrs. Format: functional.
The subject of test [4] is LNCaP. As to the kind of experiment: Apoptotic effect on LNCap cells assessed as induction of shrinkage at 25 ug/mL after 48 hrs. Format: functional, cell-based. The following applies: Homo sapiens.
The test system of test [5] is SK-HEP1. As to the kind of experiment: Cytotoxicity against human SK-HEP-1 cells assessed as inducing cell shrinkage after 48 hrs by MTS assay. Format: functional, cell-based.
Test [6] relates to SK-HEP1. As to the kind of experiment: Cytotoxicity against human SK-HEP-1 cells assessed as inducing loss of colony formation by MTS assay. Format: functional, cell-based.
The test system of test [7] is SK-HEP1. As to the kind of experiment: Effect on apoptosis in human SK-HEP-1 cells at 25 ug/mL after 48 hrs by TUNEL method. Format: functional, cell-based.

Regarding `COc1ccc2nc(N3C(=O)[C@@]4(C)[C@H]5CC[C@H](O5)[C@@]4(C)C3=O)sc2c1`, the result in test [1], in test [2], in test [4], in test [5], in test [6] and in test [7] was Active. In test [3], the Activity came out at 6.25 µg/mL.

For the molecule `Cc1ccc2nc(N3C(=O)[C@@]4(C)[C@H]5CC[C@H](O5)[C@@]4(C)C3=O)sc2c1`, the result in test [1], in test [5], in test [6] and in test [7] was Active. Besides, the Activity in test [3] is 12.5 µg/mL.
